Source: US8008283B2, “Methods and compositions for the treatment of neuropsychiatric disorders” (Neurotherapeutics Pharma, Inc., priority 2005, dated 2011)

Assays:
[1] = tested on: urethane-anesthetized rats; experiment: kainic acid-evoked electrical status epilepticus in urethane-anesthetized rats (Example 70); type: in vivo, rat
Method: Body temperature was monitored using a rectal temperature probe and maintained at 35-37° C. with a heating pad; heart rate (EKG) was continuously monitored. The jugular vein was cannulated on one side for intravenous drug administration. Rats were placed in a Kopf stereotaxic device (with the top of the skull level), and a bipolar stainless-steel microelectrode insulated to 0.5 mm of the tip was inserted to a depth of 0.5-1.2 mm from the cortical surface to record electroencephalographic (EEG) activity in the fronto-parietal cortex. In some experiments, a 2M NaCl-containing pipette was lowered to a depth of 2.5-3.0 mm to record hippocampal EEG. Data were stored on VHS videotape and analyzed off-line.
Following the surgical preparation and electrode placement, animals were allowed to recover for 30 minutes before the experiments were initiated with an injection of kainic acid (10-12 mg/kg i.v.). […] Experiments were terminated with the intravenous administration of urethane. Animal care was in accordance with NIH guidelines and approved by the University of Washington Animal Care Committee.

rats = experiment: contextual fear conditioning in rats (freezing); type: in vivo, rat; details: I.V. in DMSO, furosemide 100 mg/kg, bumetanide 50 mg/kg; compared with vehicle alone; FIG. 5
Method: Contextual fear conditioning involves pairing an aversive event, in this case moderate foot shock, with a distinctive environment. The strength of the fear memory is assessed using freezing, a species-typical defensive reaction in rats, marked by complete immobility, except for breathing. […] However, if they are allowed to explore the distinctive environment sometime before the immediate shock, they show intense anxiety and fear when placed back into the same environment. We can take advantage of this fact and, by procedurally dividing contextual fear conditioning into two phases, we can separately study effects of treatments on memory for the context (specifically a hippocampus based process) from learning the association between context and shock or experiencing the aversiveness of the shock (which depend upon emotional response circuitry including amygdala). […] The experiment employed 24 rats. […] Each rat was again placed into the same environment for 8 min during which time freezing was measured, as an index of Pavlovian conditioned fear. […] Measurement of freezing was accomplished through an overhead video camera connected to the microcomputer and was automatically scored using a specialty piece of software, FreezeFrame (OER Inc., Reston, Va.). Total freezing time was analyzed in a one-way analysis of variance (ANOVA) test, with drug dose as the […] factor.

hippocampal slices, CA1 = experiment: comparison of low-[Cl-]o and furosemide on blockade of high-[K+]o-induced epileptiform activity, CA1 field (Example 78); type: cell-based, rat
Description: In all of the following experiments, [Cl^−]o was reduced by equimolar replacement of NaCl with Na^+-gluconate. Gluconate was used rather than other anion replacements for several reasons. […]; U.S. Pat. No. 5,902,732). Third, formate, acetate, and proprionate generate weak acids when employed as Cl^− substitutes and lead to a prompt fall in intracellular pH; gluconate remains extracellular and has not been reported to induce intracellular pH shifts. Fourth, for purposes of comparison we wished to use the same anion replacement that had been used in previous studies examining the effects of low-[Cl^−]o on activity-evoked changes of the ECS.
Sprague-Dawley adult rats were prepared as previously described. Briefly, transverse hippocampal slices, 400 μm thick, were cut using a vibrating cutter. Slices typically contained the entire hippocampus and subiculum. […] Normal ACSF contained (in mmol/l): 124 NaCl, 3 KCl, 1.25 NaH2PO4, 1.2 MgSO4, 26 NaHCO3, 2 CaCl2, and 10 dextrose.
Sharp-electrodes filled with 4 M potassium acetate were used for intracellular recordings from CA1 pyramidal cells. […] For stimulation of the Schaffer collateral pathway, a small monopolar electrode was placed on the surface of the slice midway between areas CA1 and CA3. […] AxoScope software (Axon Instruments Inc.) on a PC-computer was used for off-line analyses of data. […]

hippocampal slices = details: Pearce, Neuron 10:189, 1993; cited from earlier work
[2] = tested on: hippocampal slices, areas CA1 and CA3
Method: Hippocampal slices were prepared from Sprague-Dawley adult rats as described previously. Transverse hippocampal slices 100 μm thick were cut with a vibrating cutter. Slices typically contained the entire hippocampus and subiculum. After cutting, slices were stored in an oxygenated holding chamber at room temperature for at least one hour before recording.
Sharp-electrodes for intracellular recordings from CA1 and CA3 pyramidal cells were filled with 4 M potassium acetate. Field recordings from the CA1 and CA3 cell body layers were acquired with low-resistance glass electrodes filled with 2 M NaCl. For stimulation of the Schaffer collateral or hilar pathways, a small monopolar tungsten electrode was placed on the surface of the slice. Spontaneous and stimulation-evoked activities from field and intracellular recordings were digitized (Neurocorder, Neurodata Instruments, New York, N.Y.) and stored on videotape. AxoScope software (Axon Instruments) on a personal computer was used for off-line analysis of data.
In some experiments, normal or low-chloride medium was used containing bicuculline.
After placement in the interface chamber, slices were superfused at approximately 1 ml/min. At this flow-rate, it took 8-10 minutes for changes in the perfusion media to be completed. All of the times reported here have taken this delay into account and have an error of approximately ±2 minutes.
Single electrical stimuli were delivered to the Schaffer collaterals, midway between areas CA1 and CA3, every 30 seconds so that the field responses in areas CA1 and CA3 could be monitored throughout the duration of each experiment.

human skin = details: Willis et al.; cited from earlier work

In the case of NS(=O)(=O)c1cc(C(=O)O)c(NCc2ccco2)cc1Cl [furosemide], the cortical activity ([1]; 90 minutes after the furosemide injection) is reported as “remained near normal baseline levels”, the “latency of block of seizure activity” value ([1]; intravenous furosemide, cumulative dose 40-60 mg/kg) is reported as 30 to 45 min and the “seizure activity (EEG)” value ([1]; intravenous furosemide, cumulative dose 40-60 mg/kg, kainic acid 10-12 mg/kg i.v.) is reported as “blocked”. The freezing (rats) was “significantly less freezing”, the “response to electrical stimulation of the Schaffer collaterals” value (hippocampal slices, CA1; after the spontaneous bursting had been blocked) was “elicited hyperexcited responses” and the “temporal sequence of effects on high-[K+]o-induced bursting, CA1 field” value (hippocampal slices, CA1; furosemide 2.5 and 5 mM, [K+]o 12 mM) was “an initial brief period of increased amplitude of field activity, and then blockade (reversible) of spontaneous field activity”. The “latency of block of a component of the inhibitory currents” value (hippocampal slices) was under 15 min, the “order of cessation of spontaneous bursting in CA1 and CA3” value ([2]; 2.5 mM furosemide) was “ceased in area CA1 before the bursting ceased in area CA3” and the “time CA3 continued to discharge after CA1 became silent” value ([2]; 2.5 mM furosemide or low-chloride medium) was 5 to 10 min. The “field responses to stimulation of the Schaffer collaterals” value ([2]; throughout all stages of the experiments) was “evoked hyperexcited field responses in both the CA1 and CA3 cell body layers” and the “sensory nerve activation, itch and flare responses induced by histamine” value (human skin) was “inhibit sensory nerve activation to reduce the itch and flare responses”.
